The subject of this test is HepG2 transplanted tumors. Nature of the test: proliferation of HepG2 transplanted tumors in nude mice in vivo. On the set-up: species or system BALB/c nude mice. To be noted: 50 mg/kg bw·d intraperitoneal. The protocol: BALB/c nude mice (5 to 6 weeks old), weighing 19 g to 22 g, were purchased from Shanghai Experimental Animal Center, Chinese Academy of Sciences. HepG2 cells were collected in a serum-free DMEM medium to make a cell suspension, and then the cell suspension was injected into an underarm area of each mouse, approximately 2.0×10^6 cells, one site per mouse. All mice were bred in the Experimental Animal Center of Zhejiang University, under the environment of 23° C. to 25° C., humidity 50% to 60%, and cycle of 12 h light illumination/dark 12 h. After tumor formation, the mice were randomly divided into 3 groups with 7 mice in each group. The model group was given saline by intraperitoneal injection; the positive drug group was given tegafur at 10 mg/kg bw·d by intraperitoneal injection; the treatment group was intraperitoneally injected with the quercetin 3,3′-dimethyl ether at 50 mg/kg bw·d. According to the change of tumor volume, after the tumor formed, intraperitoneal injection was conducted every 1 d to 2 d, the tumor volume was measured, and the body weight of the mice was weighed. When there was a significant difference in tumor volume between different treatment groups, the mice were sacrificed by cervical dislocation, and the tumor tissue was carefully peeled off, weighed, and calculated. The formulas were: tumor formation rate (%)=(number of tumor-forming mice in treatment group/number of tumor-forming mice in inoculation group)×100; tumor inhibition rate (%)=(average tumor weight in control group (g)−average tumor weight in administration group (g))/average tumor weight in control group (g)×100. Serum, liver, spleen, and kidney were collected and weighed.

On to `COc1cc(-c2oc3cc(O)cc(O)c3c(=O)c2OC)ccc1O` [Quercetin 3,3′-dimethyl ether, quercetin 3,3′-dimethyl ether], for which the “tumor weight, lower than that of the control group” value was found to be 52.19%. Under “day 24, 10 injections, HepG2 nude mice”, the tumor volume is listed as 284.19±85.47 mm^3. This molecule also yielded a tumor weight (tumor peeled off at sacrifice) of 194.57 ± 75.45 mg.
